In patent US4514403A, “Hydrouracil compounds” (Yoshitomi Pharmaceutical Industries Ltd., priority 1980, dated 1985):
Where a name gives a salt, the structure may show the parent alone.

Experiments:
[1] = Bradykinin nociception test; settings: for ED50: Rattus norvegicus, read-out: Bradykinin Nociception Test ED50; for Inhibition (%) of Occurrence of Pain: rats, 2.5 mg/kg s.c.
[2] = Electric stimuli test; settings: for ED50: Mus musculus, read-out: Electric Stimuli Test ED50
[3] = system: evoked potentials in central nervous system; experiment: Effect on the various evoked potentials in central nervous system; format: in vivo, Male Wistar rats; design: key to Amplitude of Evoked Responses, VP-COR / Amplitude of Evoked Responses, HIP-AMY / Amplitude of Evoked Responses, HIP-SEP: -: No change; --: No change; (+): Levallorphan antagonism; (-): Levallorphan antagonism
Description: Male Wistar rats, weighing 300-350 g, were used under ethyl ether anesthesia. The trachea and femoral vein were cannulated for artificial respiration and drug injection, respectively. Immobilization of the rat was maintained by gallamine thioethiodide (10 mg/kg) given intravenously every one hours. All wound edges were infiltration with carbocaine hydrochloride. The experiments began after at least 2 hours had elapsed from discontinuance of ether anesthesia. The COR (somatosensory cortex) evoked potentials by VP (neucleus ventralis posterior thalamus) stimulation (VP - COR evoked potential) were recorded from somatosensory cortex, through a silver electrode applied directly to the cortex. In order to record VP and MRF (midbrain reticular formation) evoked potentials by sciatic nerve stimulation or AMY (amygdala) and SEP (septum) evoked potentials by HIP (hippocampus) stimulation, bipolar stainless steel electrodes were stereotaxically placed into the VP, MRF, AMY, SEP and HIP. The stimuli were delivered to various sites every 2 seconds from a stimulation and consisted of 0.1 msec rectangular pulses (twice threshold intensity). The evoked responses were visualized on an oscilloscope. All records were made up of 20 superimposed tracings.

[4] = AgNO3 arthritis test; settings: for ED50: Rattus norvegicus, sc, read-out: AgNO3 Arthritis Test ED50; for Inhibition (%) of Occurrence of Pain: rats, 5 mg/kg s.c.
[5] = in vivo; settings: rat
[6] = Phenylquinone writhing test; settings: for ED50: Mus musculus, read-out: Phenylquinone Writhing Test ED50; for Inhibition (%) of Occurrence of Pain: mice, 0.5 mg/kg s.c.
Description: (§1) Phenylquinone writhing test, electric stimuli test, tooth pulp nociception test, hot plate test and AgNO3 arthritis test were performed according to the methods described by Y. Marayama et al. in "Arzneimittel-Forschung", 28 (11), 2102-2107 (1978), and bradykinin nociception test was performed by the method described by G. F. Blane in "Journal of Pharmacy and Pharmacology", 19, 367-373 (1967).

[7] = Tolerance test; format: in vivo; settings: continuous administration
[8] = rats; withdrawal
[9] = Hot plate test; settings: Rattus norvegicus, sc, read-out: Hot Plate Test ED50
Description: as §1

[10] = Tooth pulp nociception test
Description: as §1

[11] = Mouse jumping test; settings: administration at a lethal dose
[12] = system: central nervous system; experiment: Activity on central nervous system; settings: in vivo
[13] = system: ventro-medial hypothalamus; experiment: Effect on the aggressive-defense reaction produced by electrical stimulation at the ventro-medial hypothalamus of cats; format: in vivo; settings: for Threshold of current, Ear-flattening / Threshold of current, Growling / Threshold of current, Retreat with provocation / Threshold of current, Pupil dilatation: standard current = 100
Description: The latter used the double-walled cannula method which permitted electrical and chemical stimulation at the same locus in brain. H. Nakao et al. in "Integrative Control Functions of the Brain", vol. […] Similar studies have been done using serotonin by L. H. Allikmets in "Pavlov Journal of High Nervous Activity", 22, 597-602 (1972) and using chlorpromazine, haloperidol, pentobarbital and diazepam by H. Maeda in "Folia Psychiatrica et Neurologica Japonica", 30, 539-546 (1976).
Alternatively 30 mg/kg of Test compound B was injected subcutaneously.

[14] = calculated from inhibition (%) in a low dose

Cc1c(N(C)C)c(=O)n(-c2ccccc2)n1C [Aminopyrine, reference compound]
ED50 ([1]; sc): 30 mg/kg
ED50 ([2]; po): 315 mg/kg
ED50 ([2]; sc): 100 mg/kg
Amplitude of Evoked Responses, HIP-AMY ([3]; 10 mg/kg i.v.): --
Amplitude of Evoked Responses, HIP-SEP ([3]; 10 mg/kg i.v.): --
Amplitude of Evoked Responses, VP-COR ([3]; 10 mg/kg i.v.): --
Amplitude of Evoked Responses, HIP-AMY ([3]; 25 mg/kg i.v.): --
Amplitude of Evoked Responses, HIP-SEP ([3]; 25 mg/kg i.v.): --
Amplitude of Evoked Responses, HIP-AMY ([3]; 50 mg/kg i.v.): --
Amplitude of Evoked Responses, HIP-SEP ([3]; 50 mg/kg i.v.): --
ED50 [4]: 170 mg/kg
LD50 ([5]; ip): 248 mg/kg
LD50 ([5]; po): 1050 mg/kg
ED50 ([6]; po): 92 mg/kg
ED50 ([6]; sc): 16 mg/kg

COc1ccc2c3c1O[C@H]1[C@@H](O)C=C[C@H]4[C@@H](C2)N(C)CC[C@@]341 [Codeine, reference compound]
tolerance (decrease of effects) [7]: caused a clear tolerance
body weight reduction [8]: remarkably reduced

CN1CC[C@]23c4c5ccc(O)c4O[C@H]2[C@@H](O)C=C[C@H]3[C@H]1C5 [Morphine]
ED50 [9]: 4 mg/kg
ED50 ([1]; po): 50 mg/kg
ED50 ([1]; sc): 6 mg/kg
Inhibition (%) of Occurrence of Pain [1]: 17%
ED50 ([2]; sc): 3 mg/kg
Electric Stimuli Test ED50 ([2]; mice, p.o.): 17 mg/kg
ED50 [4]: 0.8 mg/kg
Inhibition (%) of Occurrence of Pain [4]: 100%
ED50 ([6]; po): 2.1 mg/kg
ED50 ([6]; sc): 0.4 mg/kg
Inhibition (%) of Occurrence of Pain [6]: 78%

CC(C)=CCN1CCC2(C)c3cc(O)ccc3CC1C2C (stereo not shown) [Pentazocine]
ED50 [9]: 30 mg/kg
ED50 ([1]; po): 100 mg/kg
ED50 ([1]; sc): 8 mg/kg
Relative potency (Test compound A = 1), Bradykinin Nociception Test ([1]; calculated from ED50): 0.5
Relative potency (Test compound A = 1), Bradykinin Nociception Test [1, 14]: 0.34
Inhibition (%) of Occurrence of Pain [1]: 13%
ED50 ([2]; po): 178 mg/kg
ED50 ([2]; sc): 23 mg/kg
Relative potency (Test compound A = 1), Tooth Pulp Nociception Test ([10]; calculated from ED50): 0.82
Relative potency (Test compound A = 1), Tooth Pulp Nociception Test [10, 14]: 0.59
increasing rate in threshold ([10]; rabbits, 2.5 mg/kg i.v.): 44%
ED50 [4]: 10 mg/kg
Relative potency (Test compound A = 1), AgNO3 Arthritis Test ([4]; calculated from ED50): 0.7
Relative potency (Test compound A = 1), AgNO3 Arthritis Test [4, 14]: 0.78
Inhibition (%) of Occurrence of Pain [4]: 33%
LD50 ([5]; po): 1100 mg/kg
LD50 ([5]; sc): 270 mg/kg
ED50 ([6]; po): 18 mg/kg
ED50 ([6]; sc): 1.3 mg/kg
Relative potency (Test compound A = 1), Phenylquinone Writhing Test ([6]; calculated from ED50): 0.77
Relative potency (Test compound A = 1), Phenylquinone Writhing Test [6, 14]: 0.31
Inhibition (%) of Occurrence of Pain [6]: 15%

CCOC(=O)C1(c2ccccc2)CCN(C)CC1 [Pethidine, reference compound]
Amplitude of Evoked Responses, HIP-SEP ([3]; 5 mg/kg i.v.): --
Amplitude of Evoked Responses, VP-COR ([3]; 5 mg/kg i.v.): --
Amplitude of Evoked Responses, HIP-SEP ([3]; 10 mg/kg i.v.): --

O=C1CCN(C2CCN(CC=Cc3ccccc3)CC2)C(=O)N1 [Test compound B, 1-(1-cinnamyl-4-piperidyl)hydrouracil hydrochloride]
ED50 [9]: 90 mg/kg
ED50 ([1]; po): 100 mg/kg
ED50 ([1]; sc): 10 mg/kg
ED50 ([2]; po): 200 mg/kg
ED50 ([2]; sc): 40 mg/kg
jumping symptom [11]: did not cause any jumping symptom
muscle relaxant activity [12]: did not show practically such activities
reserpine potentiating activity [12]: did not show practically such activities
suppression of spontaneous locomotor activity [12]: did not show practically such activities
ED50 [4]: 25 mg/kg
LD50 ([5]; ip): 150 mg/kg
LD50 ([5]; po): 1200 mg/kg
LD50 ([5]; sc): 500 mg/kg
Threshold of current, Ear-flattening ([13]; 30 mg/kg s.c., 0 min): 100
Threshold of current, Growling ([13]; 30 mg/kg s.c., 0 min): 100
Threshold of current, Retreat with provocation ([13]; 30 mg/kg s.c., 0 min): 100
Threshold of current, Ear-flattening ([13]; 30 mg/kg s.c., 70 min): 120
Threshold of current, Growling ([13]; 30 mg/kg s.c., 70 min): 177
Threshold of current, Retreat with provocation ([13]; 30 mg/kg s.c., 70 min): 142
Threshold of current, Ear-flattening ([13]; 30 mg/kg s.c., 110 min): 105
Threshold of current, Growling ([13]; 30 mg/kg s.c., 110 min): 184
Threshold of current, Retreat with provocation ([13]; 30 mg/kg s.c., 110 min): 127
duration for which the threshold of responses was raised ([13]; 30 mg/kg subcutaneously): over 2 hours
rage behaviour with provocation by the experimenter ([13]; 30 mg/kg subcutaneously): did not show rage behaviour
duration for which the threshold of current was raised ([13]; 10^-6 g in 0.5 μl through double-walled cannula): 60 min
Threshold of current, Ear-flattening ([13]; 10^-6 g in brain, 0 min): 100
Threshold of current, Growling ([13]; 10^-6 g in brain, 0 min): 100
Threshold of current, Pupil dilatation ([13]; 10^-6 g in brain, 0 min): 100
Threshold of current, Retreat with provocation ([13]; 10^-6 g in brain, 0 min): 100
Threshold of current, Ear-flattening ([13]; 10^-6 g in brain, 5 min): 200
Threshold of current, Growling ([13]; 10^-6 g in brain, 5 min): 200
Threshold of current, Pupil dilatation ([13]; 10^-6 g in brain, 5 min): 200
Threshold of current, Retreat with provocation ([13]; 10^-6 g in brain, 5 min): 180
Threshold of current, Ear-flattening ([13]; 10^-6 g in brain, 20 min): 200
breathing of the cat ([13]; during this experiment): normal
threatening, rage and retreat reactions ([13]; electrical stimulation of ventro-medial hypothalamus): clearly suppressed
ED50 ([6]; po): 18 mg/kg
ED50 ([6]; sc): 7.8 mg/kg
